Laboratory results taken from patent US6992188B1, “Substituted heterocyclic derivatives” (Pfizer, Inc., priority 1995, dated 2006).

`CCC(CC)n1c(=O)[nH]c2c(Oc3c(C)cc(C)cc3C)nc(C)cc21` [Example 4, 1-(1-Ethylpropyl)-6-methyl-4-(2,4,6-trimethylphenoxy)-1,3-dihydro-imidazo[4,5-c]pyridin-2-one] showed a melting point of 235 to 237 °C.
